Laboratory results reported in PubChem BioAssay AID330 (DTP/NCI, 2004).
Several values for one entry are separate records, joined by “and”; a condition that tells them apart may be missing. Equal values may be shown once. Inconclusive results and toxic doses are left out. Rule for the calls: active = survival T/C of 150% or more; inactive = T/C below 125% in these data. Square brackets hold non-standard residues; d marks the D form. Peptide text beside a SMILES is read from it. ξ: configuration not given here. ξR = N=C(N)NCCCC(N)C(=O)O

Test system: P388 leukemia ip, CD2F1 mice, survival T/C
Assay: NCI In Vivo Anticancer Drug Screen. Data for tumor model P388 Leukemia (intraperitoneal) in CD2F1 (CDF1) mice
Conditions: endpoint: median survival time, higher = longer survival
In short: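 Mice carrying the transplanted tumor received test compound or vehicle. Survival was recorded in each group, and the value is the treated-group measurement divided by that of the vehicle-treated control group.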

[1] = dose: 50.0 mg/kg/injection, schedule: Q01DX009 (ip), vehicle: saline with Tween-80
[2] = dose: 100.0 mg/kg/injection, schedule: Q01DX009 (ip), vehicle: saline with Tween-80
[3] = dose: 100.0 mg/kg/injection, schedule: Q01DX001 (ip), vehicle: Klucel (hydroxypropylcellulose) (HPC)
[4] = dose: 12.5 mg/kg/injection, schedule: Q01DX009 (ip), vehicle: Klucel (hydroxypropylcellulose) (HPC)
[5] = dose: 25.0 mg/kg/injection, schedule: Q01DX009 (ip), vehicle: Klucel (hydroxypropylcellulose) (HPC)
[6] = dose: 50.0 mg/kg/injection, schedule: Q01DX009 (ip), vehicle: Klucel (hydroxypropylcellulose) (HPC)
[7] = dose: 100.0 mg/kg/injection, schedule: Q01DX009 (ip), vehicle: Klucel (hydroxypropylcellulose) (HPC)
[8] = dose: 25.0 mg/kg/injection, schedule: Q01DX001 (ip), vehicle: Klucel (hydroxypropylcellulose) (HPC)
[9] = dose: 50.0 mg/kg/injection, schedule: Q01DX001 (ip), vehicle: Klucel (hydroxypropylcellulose) (HPC)
[10] = dose: 50.0 mg/kg/injection, schedule: Q01DX005 (ip), vehicle: saline
[11] = dose: 100.0 mg/kg/injection, schedule: Q01DX005 (ip), vehicle: saline
[12] = dose: 100.0 mg/kg/injection, schedule: Q04DX003 (ip), vehicle: saline

Measured: T/C

CC(C)(C)N=C(c1ccccc1)N1CCCCC1
inactive: [1] 100 % of control | [2] 90 % of control

Cc1cc2ccccc2nc1-c1ccncc1
inactive: dose: 25.0 mg/kg/injection, schedule: Q04DX002 (ip), vehicle: Klucel (hydroxypropylcellulose) (HPC) 96 % of control | dose: 50.0 mg/kg/injection, schedule: Q04DX002 (ip), vehicle: Klucel (hydroxypropylcellulose) (HPC) 96 % of control | dose: 100.0 mg/kg/injection, schedule: Q04DX002 (ip), vehicle: Klucel (hydroxypropylcellulose) (HPC) 101 % of control | dose: 200.0 mg/kg/injection, schedule: Q04DX002 (ip), vehicle: Klucel (hydroxypropylcellulose) (HPC) 103 % of control

C[C@@H]1CCC2=C(CO)C(=O)O[C@@]23CC(C)(C)[C@H]2O[C@]123
inactive: dose: 2.25 mg/kg/injection, schedule: Q01DX005 (ip), vehicle: Klucel (hydroxypropylcellulose) (HPC) 98 % of control | dose: 4.5 mg/kg/injection, schedule: Q01DX005 (ip), vehicle: Klucel (hydroxypropylcellulose) (HPC) 97 % of control | dose: 9.0 mg/kg/injection, schedule: Q01DX005 (ip), vehicle: Klucel (hydroxypropylcellulose) (HPC) 98 % of control | dose: 18.0 mg/kg/injection, schedule: Q01DX005 (ip), vehicle: Klucel (hydroxypropylcellulose) (HPC) 100 % of control | dose: 36.0 mg/kg/injection, schedule: Q01DX005 (ip), vehicle: Klucel (hydroxypropylcellulose) (HPC) 103 % of control

Cc1cc(C)n2ncnc2n1
inactive: dose: 12.5 mg/kg/injection, schedule: Q01DX009 (ip), vehicle: saline 105 % of control | dose: 25.0 mg/kg/injection, schedule: Q01DX009 (ip), vehicle: saline 100 % of control | dose: 50.0 mg/kg/injection, schedule: Q01DX009 (ip), vehicle: saline 100 % of control | dose: 100.0 mg/kg/injection, schedule: Q01DX009 (ip), vehicle: saline 103 % of control

NC(=S)c1ccc(N=Cc2cccc([N+](=O)[O-])c2)cc1
inactive: [3] 98 % of control | dose: 200.0 mg/kg/injection, schedule: Q01DX001 (ip), vehicle: Klucel (hydroxypropylcellulose) (HPC) 124 % of control | dose: 400.0 mg/kg/injection, schedule: Q01DX001 (ip), vehicle: Klucel (hydroxypropylcellulose) (HPC) 104 % of control

O=c1c2ccccc2nc(-c2ccccc2)n1O
inactive: [4] 103 % of control and 112 % of control | [5] 118 % of control and 94 % of control | [6] 120 % of control | [7] 94 % of control | dose: 200.0 mg/kg/injection, schedule: Q01DX009 (ip), vehicle: Klucel (hydroxypropylcellulose) (HPC) 91 % of control

COc1ccc(/C=N/N2CN(C(C)C(=O)O)C(C)(O)N=C2N)cc1OC (stereo not given)
inactive: dose: 60.0 mg/kg/injection, schedule: Q01DX005 (ip), vehicle: saline 102 % of control | dose: 120.0 mg/kg/injection, schedule: Q01DX005 (ip), vehicle: saline 104 % of control | dose: 240.0 mg/kg/injection, schedule: Q01DX005 (ip), vehicle: saline 103 % of control

CCOC1N(c2ccc(Cl)cc2)CN(C)CC1(C)C (stereo not given)
inactive: [1] 117 % of control | [2] 120 % of control

C=C1C(=O)OC2C1CCC(=C)C1CC(OC3OC(CO)C(O)C(O)C3O)C(=C)C12 (stereo not given)
inactive: dose: 50.0 mg/kg/injection, schedule: Q04DX003 (ip), vehicle: saline with Tween-80 93 % of control | dose: 100.0 mg/kg/injection, schedule: Q04DX003 (ip), vehicle: saline with Tween-80 105 % of control and 86 % of control | dose: 200.0 mg/kg/injection, schedule: Q04DX003 (ip), vehicle: saline with Tween-80 104 % of control | dose: 400.0 mg/kg/injection, schedule: Q04DX003 (ip), vehicle: saline with Tween-80 104 % of control and 124 % of control

CC1=C(C(=O)Nc2cccc3ccccc23)C(c2cccc([N+](=O)[O-])c2)C(C(=O)Nc2cccc3ccccc23)=C(C)N1
inactive: dose: 7.5 mg/kg/injection, schedule: Q01DX005 (ip), vehicle: Klucel (hydroxypropylcellulose) (HPC) 100 % of control | dose: 15.0 mg/kg/injection, schedule: Q01DX005 (ip), vehicle: Klucel (hydroxypropylcellulose) (HPC) 100 % of control | dose: 30.0 mg/kg/injection, schedule: Q01DX005 (ip), vehicle: Klucel (hydroxypropylcellulose) (HPC) 103 % of control

CCOc1nc(N)nc(C)c1N=Nc1ccccc1OC
inactive: dose: 60.0 mg/kg/injection, schedule: Q01DX005 (ip), vehicle: Klucel (hydroxypropylcellulose) (HPC) 103 % of control | dose: 120.0 mg/kg/injection, schedule: Q01DX005 (ip), vehicle: Klucel (hydroxypropylcellulose) (HPC) 100 % of control | dose: 240.0 mg/kg/injection, schedule: Q01DX005 (ip), vehicle: Klucel (hydroxypropylcellulose) (HPC) 100 % of control

C[N+](C)(C)C[c-]1[c-][c-][c-][c-]1.[Fe].[c-]1[c-][c-][cH-][c-]1
inactive: dose: 1.56 mg/kg/injection, schedule: Q01DX009 (ip), vehicle: saline with Tween-80 96 % of control | dose: 3.13 mg/kg/injection, schedule: Q01DX009 (ip), vehicle: saline with Tween-80 97 % of control | dose: 6.25 mg/kg/injection, schedule: Q01DX009 (ip), vehicle: saline with Tween-80 99 % of control | dose: 12.5 mg/kg/injection, schedule: Q01DX009 (ip), vehicle: saline with Tween-80 100 % of control

O=C1CCNC(=O)N1OS(=O)(=O)c1ccccc1
inactive: [6] 86 % of control

CC(=O)n1c(Cl)c(/C=N/Nc2ccccc2[N+](=O)[O-])c2ccccc21
inactive: [8] 91 % of control | [9] 99 % of control | [3] 87 % of control and 91 % of control

CCCC(C)N(CC)CCNc1cc(OC)cc2cccnc12 (stereo not given)
inactive: [10] 106 % of control | [11] 88 % of control

CC1=C(C(C)(C)C)C(=O)c2ccccc2C1=O
inactive: dose: 50.0 mg/kg/injection, schedule: Q01DX005 (ip), vehicle: Klucel (hydroxypropylcellulose) (HPC) 100 % of control | dose: 100.0 mg/kg/injection, schedule: Q01DX005 (ip), vehicle: Klucel (hydroxypropylcellulose) (HPC) 103 % of control | dose: 200.0 mg/kg/injection, schedule: Q01DX005 (ip), vehicle: Klucel (hydroxypropylcellulose) (HPC) 107 % of control

CC1=NN(C(=O)c2ccncc2)C(=O)C1N=Nc1ccc(S(=O)(=O)N=C(N)N)cc1 (stereo not given)
inactive: [1] 97 % of control | [2] 94 % of control | dose: 200.0 mg/kg/injection, schedule: Q01DX009 (ip), vehicle: saline with Tween-80 90 % of control

[CH3][Sn]([CH3])([O]c1cccccc1=O)[O]c1cccccc1=O
inactive: [8] 99 % of control | [9] 99 % of control | [3] 100 % of control

CC1COCCOCCOCC(C)OC(=O)CSCC(=O)O1 (stereo not given)
inactive: [12] 100 % of control | dose: 200.0 mg/kg/injection, schedule: Q04DX003 (ip), vehicle: saline 104 % of control | dose: 400.0 mg/kg/injection, schedule: Q04DX003 (ip), vehicle: saline 92 % of control

NC(N)=NCCCC(N)C(=O)NCC(=O)NCC(=O)O (stereo not drawn) (H-[ξR]-Gly-Gly-OH)
inactive: [10] 98 % of control | [11] 96 % of control | dose: 200.0 mg/kg/injection, schedule: Q01DX005 (ip), vehicle: saline 98 % of control

CC[N+](C)(CC)CC(C)C1NS(=O)(=O)c2ccccc21 (stereo not given)
inactive: dose: 25.0 mg/kg/injection, schedule: Q04DX003 (ip), vehicle: saline 104 % of control | dose: 50.0 mg/kg/injection, schedule: Q04DX003 (ip), vehicle: saline 98 % of control | [12] 98 % of control and 100 % of control

CC1=C(CO)C(=O)OC(C(C)C2CCC3C4CC5OC56C(O)C(N5CCCCC5)CC(=O)C6(C)C4CCC23C)C1 (stereo not given)
inactive: dose: 7.0 mg/kg/injection, schedule: Q01DX005 (ip), vehicle: Klucel (hydroxypropylcellulose) (HPC) 101 % of control | dose: 14.0 mg/kg/injection, schedule: Q01DX005 (ip), vehicle: Klucel (hydroxypropylcellulose) (HPC) 94 % of control | dose: 28.0 mg/kg/injection, schedule: Q01DX005 (ip), vehicle: Klucel (hydroxypropylcellulose) (HPC) 96 % of control | dose: 56.0 mg/kg/injection, schedule: Q01DX005 (ip), vehicle: Klucel (hydroxypropylcellulose) (HPC) 101 % of control | dose: 112.0 mg/kg/injection, schedule: Q01DX005 (ip), vehicle: Klucel (hydroxypropylcellulose) (HPC) 97 % of control

CC#CC#C/C(=C/C=CC(=O)OC)SC
inactive: [4] 110 % of control | [5] 106 % of control | [6] 101 % of control | [7] 104 % of control
